Laboratory results from ChEMBL document CHEMBL1128786, “Design, synthesis and evaluation of C/D-ring analogs of the fungal metabolite K-76 as potential complement inhibitors” (Bioorg Med Chem Lett, 1995).

Key:
[1] = The concentration of compound required to cause 50% hemolysis in the absence of complement; format: functional, Ovis aries
[2] = organism: Homo sapiens; test: The concentration of compound required to inhibit complement induced hemolysis by 50%; format: functional

Structure (SMILES) | EC50 [1] [µM] | IC50 [2] [µM]
CC1(C)Cc2c(Oc3ccccc3)cc(C=O)cc2O1 | > 1120 | > 1120
COc1cc(C(=O)O)cc2c1CC(C)(C)O2 | > 1350 | > 1350
CC1(C)Cc2c(Oc3ccccc3)cc(C(=O)O)cc2O1 | > 1060 | > 1060
COc1cc(-c2nn[nH]n2)cc2c1CC(C)(C)O2 | > 1220 | 245
C[C@@H]1CCC2C(C)(C)[C@H](O)[C@H](O)C[C@]2(C)[C@@]12Cc1c(O)cc(C(=O)O)c(C=O)c1O2 (some centres not stated) | > 680 | 
CC1(C)Cc2c(O)cc(C=O)cc2O1 | > 1560 | > 1560
CC1(C)Cc2c(Oc3ccccc3)cc(-c3nn[nH]n3)cc2O1 | 650 | 195
COc1cc(C=O)cc2c1CC(C)(C)O2 | > 1460 | 1100
CC1(C)Cc2c(O)cc(C(=O)O)cc2O1 | > 1440 | > 1440
